Our source for the IC50 values is patent US10100058B2, “Fused heterocyclic compounds as CaM kinase inhibitors” (Gilead Sciences, Inc., priority 2016, dated 2018).

The target in the test is recombinant CaMKIIδ (Homo sapiens (Human), UniProt Q13557). The test is described as follows: CaMKIIδ biochemical assay (HTRF). The conditions noted are these: 10 pM CaMKIIδ, 110 nM calmodulin, 12 μM ATP, 1 hour; read-out: CAMKIID-HTRF-384V2 (IC50 - nM). The method, then: CaMKIIδ Biochemical Assay
The biochemical activity of recombinant CaMKIIδ was measured by monitoring the phosphorylation of a target peptide using Homogenous Time Resolved Fluorescence (HTRF) technology from CisBio Bioassays.
For `NC[C@H]1CCCN1C(=O)c1ccnc(-c2cnn3ccc(-c4cccs4)nc23)c1` [Example 79, (R)-(2-(aminomethyl)pyrrolidin-1-yl)(2-(5-(thiophen-2-yl)pyrazolo[1,5-a]pyrimidin-3-yl)pyridin-4-yl)methanone], the IC50 (as a rule, the concentration needed to halve the response being measured) is 2.85 nM.
Consider `O=C(c1ccnc(-c2cnn3ccc(-c4cccs4)nc23)c1)N1CC2CNC(COC2)C1` (stereo not drawn) [Example 81], for which the half-maximal inhibitory concentration (IC50) is 7.33 nM.
For the compound `O=C(c1ccnc(-c2cnn3ccc(-c4cccs4)nc23)c1)N1C2CCNCC1CC2` (stereo not drawn) [Example 82], the IC50 was found to be 6.14 nM.
Next, `N[C@H]1CCCN(C(=O)c2ccnc(-c3cnn4ccc(-c5cccs5)nc34)c2)C1` [Example 83, (S)-(3-aminopiperidin-1-yl)(2-(5-(thiophen-2-yl)pyrazolo[1,5-a]pyrimidin-3-yl)pyridin-4-yl)methanone]: 18.8 nM; `C[C@@H]1CNCCN1C(=O)c1ccnc(-c2cnn3ccc(-c4cccs4)nc23)c1` [Example 84, (R)-(2-methylpiperazin-1-yl)(2-(5-(thiophen-2-yl)pyrazolo[1,5-a]pyrimidin-3-yl)pyridin-4-yl)methanone]: 17.5 nM.
In the case of `N[C@H]1CCN(C(=O)c2ccnc(-c3cnn4ccc(-c5cccs5)nc34)c2)C1` [Example 85, (S)-(3-aminopyrrolidin-1-yl)(2-(5-(thiophen-2-yl)pyrazolo[1,5-a]pyrimidin-3-yl)pyridin-4-yl)methanone], the IC50 worked out at 4.8 nM.
With `N[C@@H]1CCC[C@@H]2CCCN(C(=O)c3ccnc(-c4cnn5ccc(-c6cccs6)nc45)c3)[C@@H]21` [Example 86, ((4aR,8R,8aS)-8-aminooctahydroquinolin-1(2H)-yl)(2-(5-(thiophen-2-yl)pyrazolo[1,5-a]pyrimidin-3-yl)pyridin-4-yl)methanone], the IC50 was 0.99 nM.
For `N[C@H]1CCN(C(=O)c2ccnc(-c3cnn4ccc(-c5ccccc5)nc34)c2)C1` [Example 87, (S)-(3-aminopyrrolidin-1-yl)(2-(5-phenylpyrazolo[1,5-a]pyrimidin-3-yl)pyridin-4-yl)methanone] the value was 45.2 nM.
Take `N[C@H]1C[C@@H]2CCC[C@H]1N2C(=O)c1ccnc(-c2cnn3ccc(-c4ccccc4)nc23)c1` [Example 88, ((1S,5R,6S)-6-amino-8-azabicyclo[3.2.1]octan-8-yl)(2-(5-phenylpyrazolo[1,5-a]pyrimidin-3-yl)pyridin-4-yl)methanone]: the IC50 was found to be 50.3 nM.
Take `O=C(c1ccnc(-c2cnn3ccc(-c4ccccc4)nc23)c1)N1CCCCC12CCNC2` (stereo not drawn) [Example 89, (2-(5-phenylpyrazolo[1,5-a]pyrimidin-3-yl)pyridin-4-yl)(2,6-diazaspiro[4.5]decan-6-yl)methanone]: the 50% inhibitory concentration (IC50) worked out at 13.6 nM.
For `C[C@H](N)[C@@H]1CCCCN1C(=O)c1ccnc(-c2cnn3ccc(-c4ccccc4)nc23)c1` [Example 90, ((S)-2-((S)-1-aminoethyl)piperidin-1-yl)(2-(5-phenylpyrazolo[1,5-a]pyrimidin-3-yl)pyridin-4-yl)methanone] the value was 58.5 nM.
For `O=C(c1ccnc(-c2cnn3ccc(-c4ccccc4)nc23)c1)N1C2CCCC1CNCC2` (stereo not drawn) [Example 91], the IC50 came to 32.8 nM.
As for `O=C(c1ccnc(-c2cnn3ccc(-c4ccccc4)nc23)c1)N1CCC2CNCC21` (stereo not drawn) [Example 92, (hexahydropyrrolo[3,4-b]pyrrol-1(2H)-yl)(2-(5-phenylpyrazolo[1,5-a]pyrimidin-3-yl)pyridin-4-yl)methanone], the 50% inhibitory concentration (IC50) came out at 32.1 nM.
Take `O=C(c1ccnc(-c2cnn3ccc(-c4ccccc4)nc23)c1)N1CCCC[C@@H]1[C@@H]1CCCN1` [Example 93, (2-(5-phenylpyrazolo[1,5-a]pyrimidin-3-yl)pyridin-4-yl)((R)-2-((S)-pyrrolidin-2-yl)piperidin-1-yl)methanone]: the IC50 was 27.8 nM.
With `N[C@H]1CC[C@H]2CCCN(C(=O)c3ccnc(-c4cnn5ccc(-c6ccccc6)nc45)c3)[C@H]21` [Example 94, ((4aR,7S,7aR)-7-aminooctahydro-1H-cyclopenta[b]pyridin-1-yl)(2-(5-phenylpyrazolo[1,5-a]pyrimidin-3-yl)pyridin-4-yl)methanone], the concentration for half-maximal inhibition (IC50) stood at 7 nM.
For `O=C(c1ccnc(-c2cnn3ccc(-c4ccccc4)nc23)c1)N1CCC2CCNCC21` (stereo not drawn) [Example 95, (octahydro-1H-pyrrolo[2,3-c]pyridin-1-yl)(2-(5-phenylpyrazolo[1,5-a]pyrimidin-3-yl)pyridin-4-yl)methanone] the value was 390 nM; for `N[C@@H]1CC[C@H]2CCCN(C(=O)c3ccnc(-c4cnn5ccc(-c6ccccc6)nc45)c3)[C@H]21` [Example 96, ((4aR,7R,7aR)-7-aminooctahydro-1H-cyclopenta[b]pyridin-1-yl)(2-(5-phenylpyrazolo[1,5-a]pyrimidin-3-yl)pyridin-4-yl)methanone], 12.7 nM; for `O=C(c1ccnc(-c2cnn3ccc(-c4ccccc4)nc23)c1)N1CCCC12CCCNC2` (stereo not drawn) [Example 97, (2-(5-phenylpyrazolo[1,5-a]pyrimidin-3-yl)pyridin-4-yl)(1,7-diazaspiro[4.5]decan-1-yl)methanone], 216 nM.
For the compound `N[C@@H]1CCC[C@H]2CCCN(C(=O)c3ccnc(-c4cnn5ccc(-c6ccccc6)nc45)c3)[C@H]21` [Example 98, ((4aS,8R,8aR)-8-aminooctahydroquinolin-1(2H)-yl)(2-(5-phenylpyrazolo[1,5-a]pyrimidin-3-yl)pyridin-4-yl)methanone], the IC50 worked out at 7.36 nM.
Turning to `N[C@H]1CC[C@@H]2CCCN(C(=O)c3ccnc(-c4cnn5ccc(-c6ccccc6)nc45)c3)[C@@H]21` [Example 99, ((4aS,7S,7aS)-7-aminooctahydro-1H-cyclopenta[b]pyridin-1-yl)(2-(5-phenylpyrazolo[1,5-a]pyrimidin-3-yl)pyridin-4-yl)methanone], the IC50 is 6.98 nM.
Next, `O=C(c1ccnc(-c2cnn3ccc(-c4ccccc4)nc23)c1)N1C[C@H]2CC[C@@H](C1)N2` [Example 100, ((1R,5S)-3,8-diazabicyclo[3.2.1]octan-3-yl)(2-(5-phenylpyrazolo[1,5-a]pyrimidin-3-yl)pyridin-4-yl)methanone]: 29.8 nM.
As to `O=C(c1ccnc(-c2cnn3ccc(-c4cccs4)nc23)c1)N1CCC[C@@H]2CCNC[C@@H]21` [Example 101, ((4aR,8aR)-octahydro-1,7-naphthyridin-1(2H)-yl)(2-(5-(thiophen-2-yl)pyrazolo[1,5-a]pyrimidin-3-yl)pyridin-4-yl)methanone], the half-inhibitory concentration (IC50) turned out to be 9.54 nM.
As to `CCN(CC)[C@@H](C)CNC(=O)c1cc(N)nc(-c2cnn3ccc(-c4cccs4)nc23)c1` [Example 102, (S)-2-amino-N-(2-(diethylamino)propyl)-6-(5-(thiophen-2-yl)pyrazolo[1,5-a]pyrimidin-3-yl)isonicotinamide], the IC50 stood at 0.04 nM.
Regarding `CCN(CC)[C@@H](C)CNC(=O)c1cc(Cl)nc(-c2cnn3ccc(-c4cccs4)nc23)c1` [Example 103, (S)-2-chloro-N-(2-(diethylamino)propyl)-6-(5-(thiophen-2-yl)pyrazolo[1,5-a]pyrimidin-3-yl)isonicotinamide], the half-inhibitory concentration (IC50) came to 0.52 nM.
On to `CCN(CC)[C@@H](C)CNC(=O)c1cc(-c2cnn3ccc(-c4cccs4)nc23)nc(C(C)C)c1` [Example 104, (S)—N-(2-(diethylamino)propyl)-2-isopropyl-6-(5-(thiophen-2-yl)pyrazolo[1,5-a]pyrimidin-3-yl)isonicotinamide], for which the IC50 is 3.96 nM.
For `CN(C)c1cc(C(=O)N2CCCC[C@@H]2CN)cc(-c2cnn3ccc(-c4cccs4)nc23)n1` [Example 106, (R)-(2-(aminomethyl)piperidin-1-yl)(2-(dimethylamino)-6-(5-(thiophen-2-yl)pyrazolo[1,5-a]pyrimidin-3-yl)pyridin-4-yl)methanone], the concentration for half-maximal inhibition (IC50) came to 1.59 nM.
For `CCN(CC)[C@@H](C)CNC(=O)c1cc(-c2cnn3ccc(-c4cccs4)nc23)nc(C(F)(F)F)c1` [Example 107, (S)—N-(2-(diethylamino)propyl)-2-(5-(thiophen-2-yl)pyrazolo[1,5-a]pyrimidin-3-yl)-6-(trifluoromethyl)isonicotinamide], the half-maximal inhibitory concentration (IC50) came out at 5.62 nM.
Next, `CN(C)c1cc(C(=O)N2CC[C@H](N)C2)cc(-c2cnn3ccc(-c4cccs4)nc23)n1` [Example 109, (S)-(3-aminopyrrolidin-1-yl)(2-(dimethylamino)-6-(5-(thiophen-2-yl)pyrazolo[1,5-a]pyrimidin-3-yl)pyridin-4-yl)methanone]: 20.8 nM; `COc1cc(C(=O)N2CC[C@H](N)C2)cc(-c2cnn3ccc(-c4cccs4)nc23)n1` [Example 110, (S)-(3-aminopyrrolidin-1-yl)(2-methoxy-6-(5-(thiophen-2-yl)pyrazolo[1,5-a]pyrimidin-3-yl)pyridin-4-yl)methanone]: 7.6 nM; `NC[C@H]1CCCCN1C(=O)c1cc(Cl)nc(-c2cnn3ccc(-c4cccs4)nc23)c1` [Example 111, (R)-(2-(aminomethyl)piperidin-1-yl)(2-chloro-6-(5-(thiophen-2-yl)pyrazolo[1,5-a]pyrimidin-3-yl)pyridin-4-yl)methanone]: 0.05 nM.
Next, `CCN(CC)[C@@H](C)CNC(=O)c1cc(OC)nc(-c2cnn3ccc(-c4cccs4)nc23)c1` [Example 112, (S)—N-(2-(diethylamino)propyl)-2-methoxy-6-(5-(thiophen-2-yl)pyrazolo[1,5-a]pyrimidin-3-yl)isonicotinamide]: 0.14 nM.
Turning to `NC[C@@H]1CCCCN1C(=O)c1cc(Cl)nc(-c2cnn3ccc(-c4cccs4)nc23)c1` [Example 113, (S)-(2-(aminomethyl)piperidin-1-yl)(2-chloro-6-(5-(thiophen-2-yl)pyrazolo[1,5-a]pyrimidin-3-yl)pyridin-4-yl)methanone], the IC50 was 41.9 nM.
Consider `CCN(CC)[C@@H](C)CNC(=O)c1cc(N)nc(-c2cnn3ccc(-c4ccccc4)nc23)c1` [Example 114, (S)-2-amino-N-(2-(diethylamino)propyl)-6-(5-phenylpyrazolo[1,5-a]pyrimidin-3-yl)isonicotinamide], for which the 50% inhibitory concentration (IC50) came out at 0.5 nM.
